Measured values: PMC10500001, “Dual hypoxia-responsive supramolecular complex for cancer target therapy” (Nature Communications, 2023)
Several values for one entry are separate records, joined by “and”; a condition that tells them apart may be missing. Identical values can stand only once.

Tests used:
[1] = test system: PANC1 cells; assay: Cellular uptake mechanism with endocytosis inhibitors (flow cytometry); type: cell-based, human; details: uptake of the SAC5A complex with the inhibitor, 4 replicates
Procedure: To examine the cellular uptake mechanism of SAC5A complex, PANC1 cells (3 × 10^5 cells/well) were seeded into the six-well plates and incubated overnight. The cells were pretreated with different endocytosis inhibitors for 1 h: chlorpromazine (CHP, 20 μM, an inhibitor of clathrin-mediated endocytosis), Amiloride (AMI, 500 μM, an inhibitor of macropinocytosis), Genistein (GEN, 200 μM, an inhibitor of caveolae-mediated endocytosis), methyl-β-cyclodextrin (M-β-CD, 5 mM, an inhibitor of lipid rafts-mediated endocytosis), the cells were also pre-incubated under 4 °C for 1 h (energy-dependent endocytosis). […] After that, the cells were collected and washed three times with PBS, and then analyzed by flow cytometry. All experiments were carried out four times. […]
Chlorpromazine (CHP): inhibitor of clathrin-mediated endocytosis; amiloride (AMI): inhibitor of macropinocytosis; Genistein (GEN): inhibitor of caveolae-mediated endocytosis; Methyl-β-cyclodextrin (M-β-CD): lipid rafts-mediated endocytosis; 4 °C: energy-mediated endocytosis. Data are presented as […]

[2] = test system: PANC1 cells; assay: CLSM fluorescence imaging in living cells under normoxic and hypoxic conditions; type: cell-based, human; details: 10 μM
Procedure: In this assay, SBE-β-CD was employed to generate CY5-DM@SBE-β-CD as a benchmark. […] The increased fluorescence manifested the hypoxia-selective release performance of the supramolecular complex.
PANC1 cells (1 × 10^5 cells/well) were seeded into the confocal imaging chambers. […] After a 6 h incubation under normoxic conditions, the culture medium was exchanged with fresh medium. Thereafter, the cells were incubated at 37 °C for 18 h under either normoxic or hypoxic conditions, respectively. Subsequently, the cells were fixed in 4% paraformaldehyde (PFA; Biosharp, Hefei, China) for 15 min, washed with PBS buffer three times and then imaged using CLSM. Cell nuclei were counterstained with DAPI (C0060, Solarbio, Beijing, China) for 5 min.

[3] = test system: PANC1 tumor-bearing mice; assay: In vivo fluorescence imaging; details: single mouse
Procedure: For animals and tumor model, male BALB/c nude mice at 5–6 weeks were purchased from Vital River Laboratory Animal Technology (Beijing, China). All animal experiments were performed according to the institutional animal care guidelines established by the Institutional Animal Care and Use Committee of Nankai University. To establish the PANC1 tumor-bearing mouse model, 1 × 10^6 PANC1 cells were injected subcutaneously into the right chest of BALB/c nude mice. After the tumor grows to a suitable size, the tumor was divided into small pieces and then subcutaneously incubated into the right chest of other mice. […] The ex vivo fluorescence imaging of major organs at 24 h post injection was imaged by IVIS. Fluorescent images were analyzed using Living Image 3.1 (Caliper Life Sciences).

[4] = Competitive fluorescence titration of LCG@SC5A with NMP-BE; type: binding; details: HEPES pH 7.4
Procedure: The complexation of SAC5A with reporter dye (RhB) was measured by direct fluorescence titrations. A mixed solution containing known amounts of SAC5A and RhB was sequentially injected into 2.50 mL RhB solution in a quartz cuvette. The dye concentrations in mixed solution and cuvette are the same to keep dye concentration constant in the course of titrations. The fluorescence intensity was measured (λex = 554 nm for RhB) before the first addition and after every addition until a plateau was reached. By fitting the fluorescence intensity (λem = 575 nm for RhB) according to a 1:1 host-guest binding stoichiometry, the association constant was obtained. SC5A (LCG) and SBE-β-CD (NR) used the same method.
The complexation of SAC5A with NMP-BE was measured by competitive fluorescence titrations. […] The fluorescence intensity was measured (λex = 554 nm for RhB) before the first addition and after every addition. The association constant was obtained by fitting fluorescence intensity (λem = 575 nm for RhB) according to a 1:1 competitive binding model. […]
2.8 Fluorescence titrations of SC5A and SBE-β-CD with NMP-BE
Supplementary Figure 14. Competitive fluorescence titration of LCG@SC5A (1.0/1.0 µM) with NMP-BE (up to 80 µM) in HEPES buffer (10 mM, pH = 7.4) at 25 ℃, λex =

[5] = design: method as in earlier work; details: ref 2 of the supplement; cited from earlier work
[6] = design: method as in PMID 17268062; details: cited from earlier work

With `N=C(N)NC(=O)c1nc(Cl)c(N)nc1N` [AMI] the “cellular uptake relative to Ctrl (flow cytometry) in presence of endocytosis inhibitor” value [1] was 144.29 and 129.79 and 106.33 and 103.16.
With `CN(C)CCCN1c2ccccc2Sc2ccc(Cl)cc21` [CHP] the “cellular uptake relative to Ctrl (flow cytometry) in presence of endocytosis inhibitor” value [1] was 134.50 and 125.70 and 108.52 and 108.27.
For `CN1C(=CC=CC=CC2=[N+](C)c3ccccc3C2(C)C)C(C)(C)c2ccccc21` [CY5-DM, 1,1’,3,3,3’,3’-hexamethylindodicarbocyanine], the “difference in fluorescence intensities normoxic versus hypoxic” value [2] was “no significant difference”, the “FL intensity of the tumor in vivo” value ([3]; 1h post iv injection) was 1.80E+09 and 1.62E+09 and the “FL intensity of the tumor in vivo” value ([3]; 3h post iv injection) was 1.74E+09 and 1.60E+09. For the same compound, the “FL intensity of the tumor in vivo” value ([3]; 6h post iv injection) was 1.41E+09 and 1.34E+09 and 1.52E+09, the “FL intensity of the tumor in vivo” value ([3]; 12h post iv injection) was 1.33E+09 and 1.26E+09 and the “FL intensity of the tumor in vivo” value ([3]; 24h post iv injection) was 8.57E+08 and 6.21E+08 and 9.14E+08.
With `O=c1c(-c2ccc(O)cc2)coc2cc(O)cc(O)c12` [GEN] the “cellular uptake relative to Ctrl (flow cytometry) in presence of endocytosis inhibitor” value [1] was 88.04 and 87.28 and 70.24 and 68.53.
For `O=S(=O)(O)c1cc2c(O)c(c1)Cc1cc(S(=O)(=O)O)cc(c1O)Cc1cc(S(=O)(=O)O)cc(c1O)Cc1cc(S(=O)(=O)O)cc(c1O)Cc1cc(S(=O)(=O)O)cc(c1O)C2` [SC5A, sulfonated calix[5]arene], the “bonding ability to NMP-BE” value [4] is listed as “almost no bonding ability” and the “1:1 binding affinity between SC5A and LCG” value [5] is listed as 1.48 106 M−1.
In the case of `C=C1/C=C\C(=O)N(C)CC(=O)NC(C(O)C(N)=O)C(=O)OC(C(C)CCCCCCCCCCCC(C)C)C(C)C(=O)N1` (stereo not shown) [rakicidin A], the hypoxia-selective cytotoxicity [6] is listed as “moderate hypoxia-selective cytotoxicity”.
For M-β-CD, the “cellular uptake relative to Ctrl (flow cytometry) in presence of endocytosis inhibitor” value [1] was 121.64 and 117.67 and 92.45 and 90.16.
